Assays:
[1] = system: metastatic solid tumors; details: patients with metastatic solid tumors; Soliman, et al., Oncotarget 2014; cited from earlier work
[2] = system: STAT3; assay: pSTAT3 in MDSCs from tumor-bearing mice (Western blot); format: in vivo, mouse; details: spleens of advanced ovarian cancer-bearing mice treated with E2, compared to oophorectomized mice (FIG. 6A)
Protocol: (§1) Female 5-8 week old wild-type (WT) C57BL/6 and congenic Ly5.1 mice were purchased from the Charles River Frederick facility. Esr1 knockout (ERα KO) were purchased from The Jackson Laboratory. Ovariectomies were performed by Charles River staff at 5 weeks of age. Mice were treated with vehicle (0.1% ethanol) or 10 μM estradiol (USP grade, Sigma) drinking water refreshed every 3-4 days. All mice were maintained in pathogen-free barrier facilities. All experiments were conducted according to the approval of the Wistar Institute Institutional Animal Care and Use Committee.
Cells were lysed in RIPA buffer supplemented with protease inhibitors, phosphatase inhibitors, and Na3VO4 (Thermo) according to manufacturer protocol. Protein quantification was determined via BCA assay, and protein was run on TGX 4-15% gradient gels. Following transfer, PVDF membranes were blocked with 5% BSA in TBS+ 0.05% Tween-20. The following primary antibodies were added to membranes, as indicated, and incubated overnight: Jak2 (rabbit clone#D2E12), Stat3 (clone#124H6) and pStat3 (Tyr705)(rabbit clone#D3A7), from Cell Signaling; and ERα (Thermo, clone#TE111.5D11) and beta-actin (Sigma, clone#AC-15).
Following secondary staining with HRP-conjugated anti-mouse or rabbit IgG, membranes were developed using ECL prime (GE Healthcare).

[3] = system: Lewis Lung Carcinomas (LLC); assay: Lewis Lung Carcinoma (LLC) tumor progression in mice; format: in vivo, mouse; details: estradiol supplementation, WT mice (FIG. 3A)
Protocol: as §1
ID8 cells were retrovirally transduced to express Defb29 and Vegf-α (Conejo-Garcia, et al. “Tumor-infiltrating dendritic cell precursors recruited by a beta-defensin contribute to vaculogenesis under the influence of Vegf-A.” Nat. Med. (2004) 10:950-8). MCF-7, MDA-MB-231, and LLC1 cells were obtained from American Type Culture Collection. Peritoneal tumors were initiated in mice by injecting 3X106 ID8-Defb29/Vegf-α cells intraperitoneal (i.p.). Intraperitoneal cells were harvested from tumorbearing mice by flushing the peritoneal cavity with PBS. […] Cell line proliferation was determined by MTS assay (Promega), and increased/decreased proliferation relative to vehicle was calculated.

[4] = system: ID8-Defb29/Vegf-α peritoneal tumors; assay: Intraperitoneal ID8-Defb29/Vegf-α ovarian tumor model (survival, flow cytometry, ELISpot); format: in vivo, mouse
Protocol: as §1
(§2) ID8 cells were retrovirally transduced to express Defb29 and Vegf-α (Conejo-Garcia, et al. “Tumor-infiltrating dendritic cell precursors recruited by a beta-defensin contribute to vaculogenesis under the influence of Vegf-A.” Nat. Med. (2004) 10:950-8). MCF-7, MDA-MB-231, and LLC1 cells were obtained from American Type Culture Collection. Peritoneal tumors were initiated in mice by injecting 3X106 ID8-Defb29/Vegf-α cells intraperitoneal (i.p.). Intraperitoneal cells were harvested from tumorbearing mice by flushing the peritoneal cavity with PBS. Cells were maintained in vitro at 37° C., 5% CO2 by culturing in RPMI+10% FBS or steroid free media (SFR10), which was comprised of phenol red-free RPMI+10% charcoal-stripped FBS. Cells were treated in vitro with vehicle (0.1% DMSO) or varying concentrations of estradiol, fulvestrant, or Methylpiperidino pyrazole (MPP) purchased from Cayman Chemical. Cell line proliferation was determined by MTS assay (Promega), and increased/decreased proliferation relative to vehicle was calculated.
For generating mixed BM chimeras, mononuclear BM cells were collected from adult agematched CD45.1 (congenic) WT or CD45.2 Esr1^−/− donor mice, and 1-2×10^6 cells were mixed in a 1:1 ratio and retro-orbitally injected into lethally irradiated (˜950 rad) adult recipients. Mixed chimeras were analyzed after 7-8 weeks as indicated.
(§3) Flow cytometry was performed by staining cells with Zombie Yellow viability dye, blocking with anti-CD16/32 (2.4G2), and staining for 30 min at 4° C. with the following anti-mouse antibodies: CD45 (30-F11), CD45.1 (A20), CD45.2 (104), CD11c (N418), I-A/I-E (M5/114.15.2), CD3 (145-2C11), Ly6G (1A8), Ly6C (HK1.4), gp130 (4H1B35), IL6R (D7715A7), Gr1 (RB6-4C5), CD4 (RM4-5), CD8b (YTS156.7.7), CD44 (IM7), CD69 (H1.2F3), CD11b (M1/70); or anti-human antibodies: CD45 (HI30), CD11c (Bul5), HLA-DR-APC/Cy7 (L243), CD15 (HI98), CD14 (HCD14), CD11b (ICRF44), CD33 (WM53), CD19 (HIB19). Samples were subsequently run using an LSRII and analyzed using FlowJo.
Dendritic cells (BMDCs) were differentiated by culturing WT mouse bone marrow for 7 days with 20 ng/mL GM-CSF (Peprotech 315-03), refreshed every 3 days. BMDCs were subsequently primed with tumor antigen by pulsing for 24 hours with irradiated (100 Gy+30 minutes UV) ID8-Defb29/Vegf-α cells at a ratio of 10:1. ELISPOT assay was performed by stimulating 1X105 cells obtained from peritoneal wash with 1X104 antigen-primed BMDCs in a 96-well filter plate (Millipore MSIPS4510) coated with IFNγ capture antibody according to manufacturer's guidelines (eBioscience 88-3784-88). Following incubation at 37° C., 5% CO2 or 48 hours, positive spots were developed using Avidin-AP and BCIP-NBT substrate (R&D Systems SEL002).

[5] = system: IL6Rα chain, gp130; assay: Surface expression of IL6Rα and gp130 on BM-derived MDSCs (flow cytometry); format: cell-based, mouse
Protocol: as §3
Mouse MDSCs were expanded from mouse bone marrow harvested by flushing tibias and femurs with media. Following red blood cell lysis, 2.5×10^6 cells were cultured in 10 mL of RPMI+10% FBS augmented with recombinant mouse 40 ng/mL GM-CSF^+40 ng/mL IL6 (Peprotech) and incubated at 37° C., 5% CO2 3 or 6 days. Vehicle, estradiol, or MPP treatments were added as described above. For 6 day cultures, cytokines and estrogen treatments were refreshed on day 3. Following incubation, floating and adherent cells were collected, and MMDSCs and G-MDSCs were isolated via MDSC purification kit according to manufacturer's protocol for further analysis. […] Cells were subsequently harvested and analyzed by flow cytometry.

[6] = system: ID8-Defb29/Vegf-α cells; assay: Cell line proliferation by MTS assay; format: cell-based, mouse; details: ID8-Defb29/Vegf-α cells in vitro, increasing doses, steroid-free media; MCF-7 as positive control (FIG. 1D)
Source text: as §2

[7] = system: G- or M-MDSCs isolated from 6-day bone marrow cultures; assay: MDSC suppression assay (Cell Trace Violet dilution of T cells); format: cell-based, mouse; details: 6-day BM cultures
Protocol: (§4) Mouse MDSCs were expanded from mouse bone marrow harvested by flushing tibias and femurs with media. Following red blood cell lysis, 2.5×10^6 cells were cultured in 10 mL of RPMI+10% FBS augmented with recombinant mouse 40 ng/mL GM-CSF^+40 ng/mL IL6 (Peprotech) and incubated at 37° C., 5% CO2 3 or 6 days. Vehicle, estradiol, or MPP treatments were added as described above. For 6 day cultures, cytokines and estrogen treatments were refreshed on day 3. Following incubation, floating and adherent cells were collected, and MMDSCs and G-MDSCs were isolated via MDSC purification kit according to manufacturer's protocol for further analysis. Human MDSCs were expanded from human lung cancer patient bone marrow acquired as single cell suspensions (see above). Briefly, 2×10^6 cells were cultured in 3 mL of IMDM^+ 15% FBS supplemented with recombinant human 40 ng/mL GM-CSF^+ 40 ng/mL IL6 (Peprotech) and treated with Vehicle, 2 μM, or 10 μM MPP (see above) for 4 days. Cells were subsequently harvested and analyzed by flow cytometry.
Naïve WT T cells were purified from spleens as described and labeled with the proliferation tracker Cell Trace Violet according to manufacturer protocol. T cell proliferation was stimulated by adding anti-CD3/CD28 mouse T-activator beads (Thermo) at a 1:1 T cell to bead ratio according to manufacturer protocol. […]

[8] = system: STAT3; assay: pSTAT3 and total STAT3 in in vitro BM-derived MDSC cultures (Western blot); format: cell-based, mouse; details: 100 ng/mL E2 or 2 μM MPP (FIG. 6B)
Protocol: as §4
(§5) Cells were lysed in RIPA buffer supplemented with protease inhibitors, phosphatase inhibitors, and Na3VO4 (Thermo) according to manufacturer protocol. Protein quantification was determined via BCA assay, and protein was run on TGX 4-15% gradient gels. Following transfer, PVDF membranes were blocked with 5% BSA in TBS+ 0.05% Tween-20. […]

[9] = system: Jak2; assay: Jak2 RNA and protein expression in BM-derived MDSCs; format: cell-based, mouse
Protocol: as §4, §5

SMILES	Activity in human clinical trials [1]	Levels of pSTAT3Y705 in monocytic and granulocytic MDSCs [2]	Malignant growth of LLC tumors [3]	Survival of LLC tumor-bearing mice [3]	Tumor progression in irradiated mice reconstituted with wild-type bone marrow ([4]; E2 treatment, compared to mice reconstituted with ERα-deficient bone marrow (FIG. 4B))	IFN-γ ELISpot response of tumor-associated T cells to tumor antigens ([4]; T cells from E2-treated mice vs control and oophorectomized mice (FIG. 2C))	Inflammation at tumor (peritoneal) beds ([4]; ad libitum estradiol supplementation, tumor-bearing mice (FIG. 2A))	Tumor progression in ERα KO hosts ([4]; estradiol supplementation, ERα KO mice (FIG. 4A))	Tumor progression in wild-type controls ([4]; estradiol supplementation, wild-type mice (FIG. 4A))	Proportions of CD44+ CD69+ tumor-associated CD4 and CD8 T-cells ([4]; estradiol-supplemented tumor-bearing mice (FIG. 2B))	Percentage and total numbers of M-MDSC and G-MDSC ([4]; spleen and tumor beds of tumor-bearing mice (FIGS. 3B to 3E))	Surface expression of the IL6Rα chain ([5]; BM-MDSCs (FIG. 6D, left))	Surface expression of gp130 ([5]; BM-MDSCs (FIG. 6D, right))	Proliferation relative to vehicle (response to treatment) [6]	Inhibitory activity of M-MDSCs ([7]; 100 ng/mL E2 (FIG. 5C, bottom))	Immunosuppressive activity of G-MDSCs ([7]; 100 ng/mL E2 or 2 μM MPP (FIG. 5C, top))	Phospho-STAT3 in M-MDSCs and G-MDSCs [8]	Jak2 protein expression ([9]; BM-derived MDSCs (FIG. 6E, right))	Jak2 RNA expression ([9]; cytokine-induced bone marrow MDSCs of both lineages (FIG. 6E, left))
Cn1cc(C[C@@H](N)C(=O)O)c2ccccc21 [Indoximod, 1-methyl-D-tryptophan]	has shown activity	–	–	–	–	–	–	–	–	–	–	–	–	–	–	–	–	–	–
C[C@]12CC[C@@H]3c4ccc(O)cc4CC[C@H]3[C@@H]1CC[C@@H]2O [estradiol]	–	significantly increased	accelerated malignant growth	decreased survival	tumors progress significantly faster	responded significantly worse than either group	augmented inflammation	failed to accelerate tumor progression	significant effects	decreases	increased	did not elicit changes	did not elicit changes	fail to respond	did not affect	more potently immunosuppressive	increased phospho-STAT3 levels	reproducible Jak2 up-regulation	transcriptional up-regulation
